Patent US5486516A, “Furopyrimidine derivatives” (DowElanco, priority 1993, dated 1996)

test system: Southern corn rootworm (Diabrotica undecimpuctata howardi Barber); assay: Mite/insect screen, corn rootworm; type: in vivo; conditions: Diabrotica; CRW rate 12.00 ppm, soil; read-out: CRW results (percent mortality)
Procedure: (§1) The compounds of Examples were tested for miticidal and insecticidal activity in the following mite/insect screen.
(§2) Each test compound was formulated by dissolving the compound in acetone/alcohol (50:50) mixture containing 23 g of "TOXIMUL R" (sulfonate/nonionic emulsifier blend) and 13 g of "TOXIMUL S" (sulfonate/nonionic emulsifier blend) per liter. These mixtures were then diluted with water to give the indicated concentrations.
Activity on Southern corn rootworm (Diabrotica undecimpuctata howardi Barber) was evaluated by adding two ml of tap water, a presoaked corn seed, and 15 g of dry sandy soil to a one ounce plastic container. The soil was treated with 1 mL of test solution containing a predetermined concentration of test compound. After six to 12 hours of drying, five 2-3 instar corn rootworm larvae were added to the individual cups, which were then capped and held at 23° C.
(§3) After standard exposure periods, percent mortality and phytotoxicity were evaluated. […] The following abbreviations are used in Table 3:
CRW refers to corn rootworm

**Q.** Which mortality at 12 ppm does the source give for `Cc1oc2ncnc(OCC3CCC(C)O3)c2c1C` (stereo not drawn) [Example 60, 5,6-dimethyl-4-[(2-methyloxolan-5-yl)methoxy]furo[2,3-d]pyrimidine] here?
**A.** Its mortality at 12 ppm is 0%.

**Q.** Which mortality at 12 ppm does the source give for `COc1ccc(CCNc2ncnc3occ(C)c23)cc1OC` [Example 27, N-[2-(3,4-dimethoxyphenyl)ethyl]-5-methylfuro[2,3-d]pyrimidin-4-amine] here?
**A.** The mortality at 12 ppm was 0%.

**Q.** Which mortality at 12 ppm does the source give for `Cc1oc2ncnc(NCCc3ccccc3)c2c1C` [Example 12, 5,6-dimethyl-N-(2-phenylethyl)furo[2,3-d]pyrimidin-4-amine] here?
**A.** The mortality at 12 ppm was 0%.

same assay, conditions: Diabrotica; CRW rate 24.00 ppm, soil; read-out: CRW results (percent mortality)

**Q.** How did the mortality at 24 ppm turn out when `Cc1oc2ncnc(OCC3CCC(C)O3)c2c1C` (stereo not drawn) [Example 60, 5,6-dimethyl-4-[(2-methyloxolan-5-yl)methoxy]furo[2,3-d]pyrimidine] was run?
**A.** The mortality at 24 ppm was 0%.

**Q.** How did the mortality at 24 ppm turn out when `COc1ccc(CCNc2ncnc3occ(C)c23)cc1OC` [Example 27, N-[2-(3,4-dimethoxyphenyl)ethyl]-5-methylfuro[2,3-d]pyrimidin-4-amine] was run?
**A.** The mortality at 24 ppm was 0%.

**Q.** Which mortality at 24 ppm does the source give for `Cc1oc2ncnc(NCCc3ccccc3)c2c1C` [Example 12, 5,6-dimethyl-N-(2-phenylethyl)furo[2,3-d]pyrimidin-4-amine] here?
**A.** Its mortality at 24 ppm is 0%.

test system: Erysiphe graminis tritici (powdery mildew); assay: Plant pathology screen (Test 1), powdery mildew on wheat; conditions: Blumeria graminis, in Triticum aestivum, foliar, read-out: POWD MDEW control rating

**Q.** How did the pest or weed control at 400 µg/mL turn out when `Cc1oc2ncnc(OCC3CCC(C)O3)c2c1C` (stereo not drawn) [Example 60, 5,6-dimethyl-4-[(2-methyloxolan-5-yl)methoxy]furo[2,3-d]pyrimidine] was run?
**A.** Its pest or weed control at 400 µg/mL is 0 to 19%.

**Q.** With `COc1ccc(CCNc2ncnc3occ(C)c23)cc1OC` [Example 27, N-[2-(3,4-dimethoxyphenyl)ethyl]-5-methylfuro[2,3-d]pyrimidin-4-amine] as the compound, how does the pest or weed control at 400 µg/mL read?
**A.** The pest or weed control at 400 µg/mL was 0 to 19%.

**Q.** Which pest or weed control at 400 µg/mL does the source give for `Cc1oc2ncnc(NCCc3ccccc3)c2c1C` [Example 12, 5,6-dimethyl-N-(2-phenylethyl)furo[2,3-d]pyrimidin-4-amine] here?
**A.** Its pest or weed control at 400 µg/mL is 0 to 19%.

test system: Pyricularia oryzae (rice blast); assay: whole plant or invertebrate; type: in vivo; conditions: foliar, read-out: RICE BLAST control rating

**Q.** For `Cc1oc2ncnc(OCC3CCC(C)O3)c2c1C` (stereo not drawn) [Example 60, 5,6-dimethyl-4-[(2-methyloxolan-5-yl)methoxy]furo[2,3-d]pyrimidine], which pest or weed control at 400 µg/mL is on record?
**A.** Its pest or weed control at 400 µg/mL is 0 to 19%.

**Q.** How did the pest or weed control at 400 µg/mL turn out when `COc1ccc(CCNc2ncnc3occ(C)c23)cc1OC` [Example 27, N-[2-(3,4-dimethoxyphenyl)ethyl]-5-methylfuro[2,3-d]pyrimidin-4-amine] was run?
**A.** The pest or weed control at 400 µg/mL was 0 to 19%.

**Q.** How did the pest or weed control at 400 µg/mL turn out when `Cc1oc2ncnc(NCCc3ccccc3)c2c1C` [Example 12, 5,6-dimethyl-N-(2-phenylethyl)furo[2,3-d]pyrimidin-4-amine] was run?
**A.** The pest or weed control at 400 µg/mL was 20 to 89%.

test system: Puccinia recondita tritici (leaf rust); assay: Plant pathology screen (Test 1), leaf rust on wheat; conditions: in Triticum aestivum, foliar, read-out: LEAF RUST control rating
Procedure: This screen was used to evaluate the efficacy of the present compounds against a variety of different organisms that cause plant diseases.
The test compounds were formulated for application by dissolving 50 mg of the compound into 1.25 ml of solvent. The solvent was prepared by mixing 50 ml of "Tween 20" (polyoxyethylene (20) sorbitan monolaurate emulsifier) with 475 ml of acetone and 475 ml of ethanol. The solvent/compound solution was diluted to 125 ml with deionized water. The resulting formulation contains 400 ppm test chemical. Lower concentrations were obtained by serial dilution with the solvent-surfactant mixture.
The formulated test compounds were applied by foliar spray.
The formulated technical compounds were sprayed on all foliar surfaces of the host plants (or cut berry) to past run-off. Single pots of each host plant were placed on raised, revolving pedestals in a fume hood. Test solutions were sprayed on all foliar surfaces. All treatments were allowed to dry and the plants were inoculated with the appropriate pathogens within 2-4 hours.
The effectiveness of test compounds in controlling disease was rated using the following scale.

**Q.** How did the pest or weed control at 400 µg/mL turn out when `Cc1oc2ncnc(OCC3CCC(C)O3)c2c1C` (stereo not drawn) [Example 60, 5,6-dimethyl-4-[(2-methyloxolan-5-yl)methoxy]furo[2,3-d]pyrimidine] was run?
**A.** Its pest or weed control at 400 µg/mL is 0 to 19%.

**Q.** With `COc1ccc(CCNc2ncnc3occ(C)c23)cc1OC` [Example 27, N-[2-(3,4-dimethoxyphenyl)ethyl]-5-methylfuro[2,3-d]pyrimidin-4-amine] as the compound, how does the pest or weed control at 400 µg/mL read?
**A.** The pest or weed control at 400 µg/mL was 90 to 100%.

**Q.** With `Cc1oc2ncnc(NCCc3ccccc3)c2c1C` [Example 12, 5,6-dimethyl-N-(2-phenylethyl)furo[2,3-d]pyrimidin-4-amine] as the compound, how does the pest or weed control at 400 µg/mL read?
**A.** The pest or weed control at 400 µg/mL was 90 to 100%.

test system: Botrytis cinerea (gray mold); assay: Plant pathology screen (Test 1), gray mold on grape berries; conditions: read-out: GRAY MOLD control rating

**Q.** Which pest or weed control at 400 µg/mL does the source give for `Cc1oc2ncnc(OCC3CCC(C)O3)c2c1C` (stereo not drawn) [Example 60, 5,6-dimethyl-4-[(2-methyloxolan-5-yl)methoxy]furo[2,3-d]pyrimidine] here?
**A.** The pest or weed control at 400 µg/mL was 0 to 19%.

**Q.** With `COc1ccc(CCNc2ncnc3occ(C)c23)cc1OC` [Example 27, N-[2-(3,4-dimethoxyphenyl)ethyl]-5-methylfuro[2,3-d]pyrimidin-4-amine] as the compound, how does the pest or weed control at 400 µg/mL read?
**A.** The pest or weed control at 400 µg/mL was 0 to 19%.

**Q.** For `Cc1oc2ncnc(NCCc3ccccc3)c2c1C` [Example 12, 5,6-dimethyl-N-(2-phenylethyl)furo[2,3-d]pyrimidin-4-amine], which pest or weed control at 400 µg/mL is on record?
**A.** Its pest or weed control at 400 µg/mL is 0 to 19%.

test system: melon aphids (Aphis gossvpii Glover); assay: Mite/insect screen, melon aphids; type: in vivo; conditions: Aphis; rate 200 ppm, sprayed leaves; read-out: MA results (percent mortality)
Procedure: as §1, §2
(§4) Twospotted spider mites (Tetranychus urticae Koch) and melon aphids (Aphis gossvpii Glover) were introduced on squash cotyledons and allowed to establish on both leaf surfaces. Other plants in the same treatment pot were left uninfested. The leaves were then sprayed with 5 ml of test solution using a DeVilbiss atomizing sprayer at 10 psi. Both surfaces of the leaves were covered until runoff, and then allowed to dry for one hour. Two uninfested leaves were then excised and placed into a Petri dish containing larval southern armyworm (Spodopetra eridania Cramer).
as §3
MA refers to melon aphids.

**Q.** With `Cc1oc2ncnc(OCC3CCC(C)O3)c2c1C` (stereo not drawn) [Example 60, 5,6-dimethyl-4-[(2-methyloxolan-5-yl)methoxy]furo[2,3-d]pyrimidine] as the compound, how does the mortality at 200 ppm read?
**A.** The mortality at 200 ppm was 50%.

**Q.** How did the mortality at 200 ppm turn out when `COc1ccc(CCNc2ncnc3occ(C)c23)cc1OC` [Example 27, N-[2-(3,4-dimethoxyphenyl)ethyl]-5-methylfuro[2,3-d]pyrimidin-4-amine] was run?
**A.** Its mortality at 200 ppm is 0%.

**Q.** `Cc1oc2ncnc(NCCc3ccccc3)c2c1C` [Example 12, 5,6-dimethyl-N-(2-phenylethyl)furo[2,3-d]pyrimidin-4-amine] was tested. Which mortality at 200 ppm did it give?
**A.** Its mortality at 200 ppm is 0%.

same assay, conditions: Aphis; rate 400 ppm, sprayed leaves; read-out: MA results (percent mortality)

**Q.** For `Cc1oc2ncnc(OCC3CCC(C)O3)c2c1C` (stereo not drawn) [Example 60, 5,6-dimethyl-4-[(2-methyloxolan-5-yl)methoxy]furo[2,3-d]pyrimidine], which mortality at 400 ppm is on record?
**A.** The mortality at 400 ppm was 60%.

**Q.** For `COc1ccc(CCNc2ncnc3occ(C)c23)cc1OC` [Example 27, N-[2-(3,4-dimethoxyphenyl)ethyl]-5-methylfuro[2,3-d]pyrimidin-4-amine], which mortality at 400 ppm is on record?
**A.** The mortality at 400 ppm was 0%.

**Q.** How did the mortality at 400 ppm turn out when `Cc1oc2ncnc(NCCc3ccccc3)c2c1C` [Example 12, 5,6-dimethyl-N-(2-phenylethyl)furo[2,3-d]pyrimidin-4-amine] was run?
**A.** The mortality at 400 ppm was 0%.

test system: Pseudoperonospora cubensis (downy mildew); assay: Plant pathology screen (Test 1), downy mildew on squash; conditions: foliar, read-out: DOWN MDEW control rating

**Q.** Which pest or weed control at 400 µg/mL does the source give for `Cc1oc2ncnc(OCC3CCC(C)O3)c2c1C` (stereo not drawn) [Example 60, 5,6-dimethyl-4-[(2-methyloxolan-5-yl)methoxy]furo[2,3-d]pyrimidine] here?
**A.** Its pest or weed control at 400 µg/mL is 90 to 100%.

**Q.** Which pest or weed control at 400 µg/mL does the source give for `COc1ccc(CCNc2ncnc3occ(C)c23)cc1OC` [Example 27, N-[2-(3,4-dimethoxyphenyl)ethyl]-5-methylfuro[2,3-d]pyrimidin-4-amine] here?
**A.** The pest or weed control at 400 µg/mL was 90 to 100%.

**Q.** With `Cc1oc2ncnc(NCCc3ccccc3)c2c1C` [Example 12, 5,6-dimethyl-N-(2-phenylethyl)furo[2,3-d]pyrimidin-4-amine] as the compound, how does the pest or weed control at 400 µg/mL read?
**A.** The pest or weed control at 400 µg/mL was 90 to 100%.

test system: Twospotted spider mites (Tetranychus urticae Koch); assay: Mite/insect screen, twospotted spider mites; type: in vivo; conditions: Tetranychus urticae, rate 200 ppm, sprayed leaves; read-out: SM results (percent mortality)
Procedure: as §1, §2, §4, §3
SM refers to twospotted spider mites

**Q.** `Cc1oc2ncnc(OCC3CCC(C)O3)c2c1C` (stereo not drawn) [Example 60, 5,6-dimethyl-4-[(2-methyloxolan-5-yl)methoxy]furo[2,3-d]pyrimidine] was tested. Which mortality at 200 ppm did it give?
**A.** The mortality at 200 ppm was 0%.

**Q.** For `COc1ccc(CCNc2ncnc3occ(C)c23)cc1OC` [Example 27, N-[2-(3,4-dimethoxyphenyl)ethyl]-5-methylfuro[2,3-d]pyrimidin-4-amine], which mortality at 200 ppm is on record?
**A.** The mortality at 200 ppm was 0%.

**Q.** How did the mortality at 200 ppm turn out when `Cc1oc2ncnc(NCCc3ccccc3)c2c1C` [Example 12, 5,6-dimethyl-N-(2-phenylethyl)furo[2,3-d]pyrimidin-4-amine] was run?
**A.** The mortality at 200 ppm was 0%.

same assay, conditions: Tetranychus urticae, rate 400 ppm, sprayed leaves; read-out: SM results (percent mortality)

**Q.** Which mortality at 400 ppm does the source give for `Cc1oc2ncnc(OCC3CCC(C)O3)c2c1C` (stereo not drawn) [Example 60, 5,6-dimethyl-4-[(2-methyloxolan-5-yl)methoxy]furo[2,3-d]pyrimidine] here?
**A.** The mortality at 400 ppm was 80%.

**Q.** With `COc1ccc(CCNc2ncnc3occ(C)c23)cc1OC` [Example 27, N-[2-(3,4-dimethoxyphenyl)ethyl]-5-methylfuro[2,3-d]pyrimidin-4-amine] as the compound, how does the mortality at 400 ppm read?
**A.** Its mortality at 400 ppm is 0%.

**Q.** `Cc1oc2ncnc(NCCc3ccccc3)c2c1C` [Example 12, 5,6-dimethyl-N-(2-phenylethyl)furo[2,3-d]pyrimidin-4-amine] was tested. Which mortality at 400 ppm did it give?
**A.** The mortality at 400 ppm was 0%.

test system: southern armyworm (Spodopetra eridania Cramer); assay: Mite/insect screen, Southern armyworm; type: in vivo; conditions: Spodoptera eridania; rate 200 ppm, sprayed leaves; read-out: SAW results (percent mortality)
Procedure: as §1, §2, §4, §3
SAW refers to Southern armyworm

**Q.** How did the mortality at 200 ppm turn out when `Cc1oc2ncnc(OCC3CCC(C)O3)c2c1C` (stereo not drawn) [Example 60, 5,6-dimethyl-4-[(2-methyloxolan-5-yl)methoxy]furo[2,3-d]pyrimidine] was run?
**A.** Its mortality at 200 ppm is 0%.

**Q.** `COc1ccc(CCNc2ncnc3occ(C)c23)cc1OC` [Example 27, N-[2-(3,4-dimethoxyphenyl)ethyl]-5-methylfuro[2,3-d]pyrimidin-4-amine] was tested. Which mortality at 200 ppm did it give?
**A.** The mortality at 200 ppm was 0%.

**Q.** `Cc1oc2ncnc(NCCc3ccccc3)c2c1C` [Example 12, 5,6-dimethyl-N-(2-phenylethyl)furo[2,3-d]pyrimidin-4-amine] was tested. Which mortality at 200 ppm did it give?
**A.** Its mortality at 200 ppm is 0%.

same assay, conditions: Spodoptera eridania; rate 400 ppm, sprayed leaves; read-out: SAW results (percent mortality)

**Q.** `Cc1oc2ncnc(OCC3CCC(C)O3)c2c1C` (stereo not drawn) [Example 60, 5,6-dimethyl-4-[(2-methyloxolan-5-yl)methoxy]furo[2,3-d]pyrimidine] was tested. Which mortality at 400 ppm did it give?
**A.** The mortality at 400 ppm was 0%.

**Q.** For `COc1ccc(CCNc2ncnc3occ(C)c23)cc1OC` [Example 27, N-[2-(3,4-dimethoxyphenyl)ethyl]-5-methylfuro[2,3-d]pyrimidin-4-amine], which mortality at 400 ppm is on record?
**A.** Its mortality at 400 ppm is 0%.

**Q.** With `Cc1oc2ncnc(NCCc3ccccc3)c2c1C` [Example 12, 5,6-dimethyl-N-(2-phenylethyl)furo[2,3-d]pyrimidin-4-amine] as the compound, how does the mortality at 400 ppm read?
**A.** The mortality at 400 ppm was 0%.
